Data as given in patent publication US20240101564A1, “SALTS OF A PI3Kdelta INHIBITOR, CRYSTALLINE FORMS, METHODS OF PREPARATION, AND USES THEREFORE” (BeiGene Switzerland GmbH, priority 2021, published 2024).

Legend:
[1] = DVS (water sorption) test of fumarate crystal forms; assay type: physicochemical; details: for water uptake in DVS: humidity increased
Description: DVS testing on fumarate Type A was performed starting from 25° C./70% RH.
DVS test on Type D was started at 25° C./60% RH to avoid any unnecessary form change for the starting form. […] Thus, fumarate Type D was speculated to be stable lower than 60% RH.
DVS testing on fumarate Type F was started at 25° C./80% RH to avoid any unnecessary form change for the starting form.

[2] = pharmacokinetic properties of different salts in Sprague-Dawley rats after oral administration; assay type: in vivo; details: male SD rats, single oral 10 mg·kg^−1 (as free base), 0.5% MC, fasted
Description: The oral dosing solution was prepared as follows: […] of a test compound was weighed and dispersed in 10 mL of 0.5% methyl cellulose (MC). The final concentration of the test compound is 1 mg·mL^−1 (Calculated by free freebase).
Male Sprague-Dawley rats (also summarized in Table 27) were housed in solid bottom polypropylene cages with sterilized bedding and receive sterilized diet and sterilized water. The room was controlled and monitored for humidity (targeted mean range 40% to 70%) and temperature (targeted mean range 18° C. to 26° C.) with 10 to 20 air changes/hour. The light cycle was maintained at 12-h light and 12-h dark. Only animals that appeared to be healthy were selected for this study based on overall health, body weight, or other relevant information.
The male Sprague-Dawley rats were fasted overnight with free access to drinking water prior to treatment. On day 1, the animals were weighed and actual dose volume for each animal was calculated using the formula below: […]
Three rats for each group were given a single oral dose of 10 mg·kg^−1. The dosing solutions were freshly prepared prior to dose administration. The actual body weights and actual volume injected were recorded accordingly. Four hours after dosing, the rats were allowed to intake food.
Blood samples (˜150 μL) were collected at different times from the jugular vein catheter into EDTA-K2 coated tubes. Whole blood was processed by centrifugation at 3000 g for 10 min. Plasma samples were collected and kept at −80° C. freezer prior to analysis. The blood sampling time was recorded accordingly.
The dose samples of PO were diluted with MeOH:H2O (4:1, v/v) to achieve the concentration of 2 μg·mL^−1, respectively. Then, 2.5 μL of the diluted samples were added with 47.5 μL blank plasma, and then were handled as the plasma sample procedure. An aliquot of 10 μL of the mixture was injected into the LC-MS/MS system.

[3] = solid-state stability tests (HPLC and XRPD after storage for one week); assay type: physicochemical; details: for HPLC (area %), One week / XRPD form after storage (form change) / difference of HPLC purity after storage: 25° C./60% RH and 40° C./75% RH, one week
Description: Fumarate Type D and Type F were further evaluated by solid-state stability tests under 25° C./60% RH and 40° C./75% RH for one week.
In the experiments, about 15 mg of solids was added into an HPLC vial, which was then sealed with parafilm and pricked with 10 holes. Place the vial under corresponding condition and test the solids by HPLC and XRPD after one week.

[4] = long-term stability, 3-month experiment; assay type: physicochemical
tumor xenografts = tumor xenografts engrafted subcutaneously or systemically in mice; assay type: in vivo; details: xenografts subcutaneous or systemic in mice
PI3Kδ = PI3Kδ (Homo sapiens, UniProt O00329); assay: PI3Kδ inhibition in biochemical and cellular assays
cancer cell lines = assay: cellular growth of cancer cell lines in vitro; assay type: cell-based; details: several cancer cell lines in vitro

PI3Kδ, sequence (O00329 whole entry, species assumed): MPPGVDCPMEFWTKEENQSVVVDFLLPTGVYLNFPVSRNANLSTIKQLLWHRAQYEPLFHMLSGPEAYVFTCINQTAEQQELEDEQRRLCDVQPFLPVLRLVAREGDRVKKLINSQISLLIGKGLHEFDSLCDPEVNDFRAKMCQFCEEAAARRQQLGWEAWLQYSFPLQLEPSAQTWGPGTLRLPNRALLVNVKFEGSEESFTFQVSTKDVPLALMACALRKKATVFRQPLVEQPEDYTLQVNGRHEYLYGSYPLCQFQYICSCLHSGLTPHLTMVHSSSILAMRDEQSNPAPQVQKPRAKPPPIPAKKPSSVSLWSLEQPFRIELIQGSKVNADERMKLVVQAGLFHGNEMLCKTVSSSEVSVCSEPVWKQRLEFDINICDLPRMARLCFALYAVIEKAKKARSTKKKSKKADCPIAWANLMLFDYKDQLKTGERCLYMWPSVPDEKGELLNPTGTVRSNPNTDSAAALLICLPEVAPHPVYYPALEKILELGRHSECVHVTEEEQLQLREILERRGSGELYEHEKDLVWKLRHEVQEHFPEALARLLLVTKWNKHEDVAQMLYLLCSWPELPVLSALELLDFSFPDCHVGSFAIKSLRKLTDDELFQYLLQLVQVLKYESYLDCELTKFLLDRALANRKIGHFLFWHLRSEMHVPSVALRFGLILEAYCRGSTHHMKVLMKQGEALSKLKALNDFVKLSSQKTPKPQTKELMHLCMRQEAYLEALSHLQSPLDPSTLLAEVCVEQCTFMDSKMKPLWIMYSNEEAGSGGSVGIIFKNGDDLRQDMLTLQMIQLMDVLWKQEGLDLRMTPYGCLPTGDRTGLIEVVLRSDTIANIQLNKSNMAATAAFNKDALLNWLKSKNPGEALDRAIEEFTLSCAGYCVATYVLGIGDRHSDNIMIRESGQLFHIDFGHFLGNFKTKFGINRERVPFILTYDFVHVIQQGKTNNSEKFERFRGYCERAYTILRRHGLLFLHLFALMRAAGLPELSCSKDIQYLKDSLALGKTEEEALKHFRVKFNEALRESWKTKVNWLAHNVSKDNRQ
PI3Kδ, sequence (P27986 whole entry partner, species assumed): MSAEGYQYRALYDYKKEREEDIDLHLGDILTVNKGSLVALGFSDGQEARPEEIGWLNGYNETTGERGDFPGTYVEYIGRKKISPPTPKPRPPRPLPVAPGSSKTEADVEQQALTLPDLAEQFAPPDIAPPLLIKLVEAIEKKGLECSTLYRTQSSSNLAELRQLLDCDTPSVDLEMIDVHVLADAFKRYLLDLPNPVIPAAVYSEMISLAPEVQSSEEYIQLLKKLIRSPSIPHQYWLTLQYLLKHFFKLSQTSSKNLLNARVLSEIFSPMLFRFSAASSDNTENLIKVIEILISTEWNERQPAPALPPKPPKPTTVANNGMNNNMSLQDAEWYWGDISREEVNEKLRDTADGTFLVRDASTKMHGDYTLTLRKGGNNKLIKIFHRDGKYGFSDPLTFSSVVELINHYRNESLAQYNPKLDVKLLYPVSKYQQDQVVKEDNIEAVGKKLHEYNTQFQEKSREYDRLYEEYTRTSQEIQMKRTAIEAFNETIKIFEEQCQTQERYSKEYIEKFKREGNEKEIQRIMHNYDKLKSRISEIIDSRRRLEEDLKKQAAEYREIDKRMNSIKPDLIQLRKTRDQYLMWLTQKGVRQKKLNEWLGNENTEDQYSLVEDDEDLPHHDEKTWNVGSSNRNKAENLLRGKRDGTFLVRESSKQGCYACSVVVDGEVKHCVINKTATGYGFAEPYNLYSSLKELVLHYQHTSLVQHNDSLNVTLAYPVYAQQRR

Row | SMILES | AUC0-inf [2] | AUC0-t [2] | Cmax [2] | F % (n = 3) [2] | Kel [2] | t1/2 [2] | tmax [2] | HPLC (area %), One week [3] | XRPD form after storage (form change) [3] | difference of HPLC purity after storage [3] | HPLC Area (%), RRT 1.00 ([3]; 25° C./60% RH for 1 week) | HPLC Area (%), RRT 1.08 ([3]; 25° C./60% RH for 1 week) | HPLC Area (%), RRT 1.13 ([3]; 25° C./60% RH for 1 week) | HPLC Area (%), RRT 1.00 ([3]; 40° C./75% RH for 1 week) | HPLC Area (%), RRT 1.08 ([3]; 40° C./75% RH for 1 week) | HPLC Area (%), RRT 1.13 ([3]; 40° C./75% RH for 1 week) | HPLC (area %), Initial ([3]; Initial) | HPLC Area (%), RRT 1.00 ([3]; Initial) | HPLC Area (%), RRT 1.13 ([3]; Initial) | also measured
1 | Cc1nc([C@@H](C)c2cc(Cl)c(F)c(C(=O)NCCN3CCN(C)CC3)c2OC(C)C)n2ccnc(N)c12.O=C(O)/C=C/C(=O)O [Fumarate Type A] | – | – | – | – | – | – | – | – | – | – | – | – | – | – | – | – | – | – | – | water uptake in DVS ([1]; started from 25° C./70% RH): ~21%
2 | Cc1nc([C@@H](C)c2cc(Cl)c(F)c(C(=O)NCCN3CCN(C)CC3)c2OC(C)C)n2ccnc(N)c12.Cc1nc([C@@H](C)c2cc(Cl)c(F)c(C(=O)NCCN3CCN(C)CC3)c2OC(C)C)n2ccnc(N)c12.O=C(O)C(O)C(O)C(=O)O.O=C(O)C(O)C(O)C(=O)O.O=C(O)C(O)C(O)C(=O)O [D-Tartarate (acid/base = 1.5:1)] | 147.7 ng·h/mL | 54.9 ng·h/mL | 14.8 ng/mL | 3.4% | 0.06 h⁻¹ | 12 h | 2.7 h | – | – | – | – | – | – | – | – | – | – | – | – | –
3 | Cc1nc([C@@H](C)c2cc(Cl)c(F)c(C(=O)NCCN3CCN(C)CC3)c2OC(C)C)n2ccnc(N)c12 [Compound A, (S)-3-(1-(8-amino-1-methylimidazo[1,5-a]pyrazin-3-yl)ethyl)-5-chloro-6-fluoro-2-isopropoxy-N-(2-(4-methylpiperazin-1-yl)ethyl)benzamide] | – | – | – | – | – | – | – | – | – | – | – | – | – | – | – | – | – | – | – | antitumor effects (tumor xenografts): dose-dependent antitumor effects; inhibition of PI3Kδ (PI3Kδ): potent and selective inhibitor; inhibition of cellular growth (cancer cell lines): inhibits cellular growth

The next lines start with results.

Row | AUC0-inf [2] | AUC0-t [2] | Cmax [2] | F % (n = 3) [2] | Kel [2] | t1/2 [2] | tmax [2] | HPLC (area %), One week [3] | XRPD form after storage (form change) [3] | difference of HPLC purity after storage [3] | HPLC Area (%), RRT 1.00 ([3]; 25° C./60% RH for 1 week) | HPLC Area (%), RRT 1.08 ([3]; 25° C./60% RH for 1 week) | HPLC Area (%), RRT 1.13 ([3]; 25° C./60% RH for 1 week) | HPLC Area (%), RRT 1.00 ([3]; 40° C./75% RH for 1 week) | HPLC Area (%), RRT 1.08 ([3]; 40° C./75% RH for 1 week) | HPLC Area (%), RRT 1.13 ([3]; 40° C./75% RH for 1 week) | HPLC (area %), Initial ([3]; Initial) | HPLC Area (%), RRT 1.00 ([3]; Initial) | HPLC Area (%), RRT 1.13 ([3]; Initial) | SMILES | also measured
4 | 356 ng·h/mL | 210 ng·h/mL | 48.3 ng/mL | 13.6% | 0.0687 h⁻¹ | 11 h | 2.45 h | 99.9 area % | Type D | no obvious difference of HPLC purity | 99.92% | 0.02% | 0.06% | 99.90% | 0.03% | 0.07% | 99.9 area % | 99.92% | 0.05% | Cc1nc([C@@H](C)c2cc(Cl)c(F)c(C(=O)NCCN3CCN(C)CC3)c2OC(C)C)n2ccnc(N)c12.O=C(O)/C=C/C(=O)O [Fumarate Type D] | humidity below which the form is speculated to be stable ([1]; from DVS, 25° C.): lower than 60 % RH; mass change in DVS ([1]; started at 25° C./60% RH, 60% to 0% RH, then 0% to 70% RH): ~1.6%; XRPD form after storage (form change) ([3]; listed as fumarate Type D): no form change; HPLC Area (%), RRT 1.08 ([3]; Initial): 0.03%; long-term stability [4]: excellent long-term stability
5 | – | – | – | – | – | – | – | 99.9 area % | Type F | no obvious difference of HPLC purity | 99.88% | 0.02% | 0.05% | 99.91% | 0.03% | 0.06% | 99.9 area % | 99.95% | 0.05% | Cc1nc([C@@H](C)c2cc(Cl)c(F)c(C(=O)NCCN3CCN(C)CC3)c2OC(C)C)n2ccnc(N)c12.O=C(O)/C=C/C(=O)O [Fumarate Type F] | water uptake in DVS ([1]; started at 25° C./80% RH): ~17%; XRPD form after storage (form change) ([3]; listed as fumarate Type F): no form change; HPLC Area (%), RRT 1.06 ([3]; 25° C./60% RH for 1 week): 0.05%
